Assay results reported in patent US20240122212A1 (SUNTORY HOLDINGS LIMITED, priority 2020, published 2024).
Read-outs that look alike come from different tables or passages of the source. Blank lines part the entries; values can stand above or below the molecule they belong to.

Key:
[1] = sucrose per unit concentration Brix 1 = 1, cited from earlier work
[2] = biological target: T1, sweet taste receptor (T1R2/T1R3) (Homo sapiens, UniProt Q7RTX0+Q8TE23); assay: Sensory evaluation of sweetness intensity (VAS) in the co-presence of sweet taste receptor inhibitor lactisole (Example 5); type: in vivo; conditions: for Sweetness intensity residual ratio (%) with addition of 100 ppm lactisole: lactisole-free solution = 100%, sucrose 8 w/v %, sucralose 149 ppm, D- or L-arabinose 13.3 w/v %, VAS, average of n=3
T1 construct: endogenous in cells; host or cells: taste cells in the mouths of 3 trained human panelists (in vivo spitting test)
T1 sequence (Q8TE23 20-839): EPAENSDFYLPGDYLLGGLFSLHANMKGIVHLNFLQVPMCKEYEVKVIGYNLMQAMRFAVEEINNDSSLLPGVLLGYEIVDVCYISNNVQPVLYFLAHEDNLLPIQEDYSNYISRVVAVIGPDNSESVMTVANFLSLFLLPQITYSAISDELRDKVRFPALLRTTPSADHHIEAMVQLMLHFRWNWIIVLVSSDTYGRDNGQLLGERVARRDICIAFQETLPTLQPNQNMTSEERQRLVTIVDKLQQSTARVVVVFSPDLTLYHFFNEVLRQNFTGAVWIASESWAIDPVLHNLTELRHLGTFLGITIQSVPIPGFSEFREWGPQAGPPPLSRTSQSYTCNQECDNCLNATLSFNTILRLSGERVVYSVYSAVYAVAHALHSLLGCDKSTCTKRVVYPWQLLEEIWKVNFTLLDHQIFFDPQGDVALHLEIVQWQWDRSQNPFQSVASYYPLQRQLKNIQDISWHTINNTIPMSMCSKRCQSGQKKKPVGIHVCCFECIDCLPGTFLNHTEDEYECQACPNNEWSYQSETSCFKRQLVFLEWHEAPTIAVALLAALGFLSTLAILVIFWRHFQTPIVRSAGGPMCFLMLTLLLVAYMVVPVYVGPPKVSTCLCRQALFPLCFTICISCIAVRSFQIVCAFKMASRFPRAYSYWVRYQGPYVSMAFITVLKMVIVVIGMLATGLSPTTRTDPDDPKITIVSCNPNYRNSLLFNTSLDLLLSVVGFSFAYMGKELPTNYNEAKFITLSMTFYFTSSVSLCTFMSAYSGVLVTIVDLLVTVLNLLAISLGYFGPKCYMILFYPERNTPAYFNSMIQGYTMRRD
T1 sequence (Q7RTX0 21-852): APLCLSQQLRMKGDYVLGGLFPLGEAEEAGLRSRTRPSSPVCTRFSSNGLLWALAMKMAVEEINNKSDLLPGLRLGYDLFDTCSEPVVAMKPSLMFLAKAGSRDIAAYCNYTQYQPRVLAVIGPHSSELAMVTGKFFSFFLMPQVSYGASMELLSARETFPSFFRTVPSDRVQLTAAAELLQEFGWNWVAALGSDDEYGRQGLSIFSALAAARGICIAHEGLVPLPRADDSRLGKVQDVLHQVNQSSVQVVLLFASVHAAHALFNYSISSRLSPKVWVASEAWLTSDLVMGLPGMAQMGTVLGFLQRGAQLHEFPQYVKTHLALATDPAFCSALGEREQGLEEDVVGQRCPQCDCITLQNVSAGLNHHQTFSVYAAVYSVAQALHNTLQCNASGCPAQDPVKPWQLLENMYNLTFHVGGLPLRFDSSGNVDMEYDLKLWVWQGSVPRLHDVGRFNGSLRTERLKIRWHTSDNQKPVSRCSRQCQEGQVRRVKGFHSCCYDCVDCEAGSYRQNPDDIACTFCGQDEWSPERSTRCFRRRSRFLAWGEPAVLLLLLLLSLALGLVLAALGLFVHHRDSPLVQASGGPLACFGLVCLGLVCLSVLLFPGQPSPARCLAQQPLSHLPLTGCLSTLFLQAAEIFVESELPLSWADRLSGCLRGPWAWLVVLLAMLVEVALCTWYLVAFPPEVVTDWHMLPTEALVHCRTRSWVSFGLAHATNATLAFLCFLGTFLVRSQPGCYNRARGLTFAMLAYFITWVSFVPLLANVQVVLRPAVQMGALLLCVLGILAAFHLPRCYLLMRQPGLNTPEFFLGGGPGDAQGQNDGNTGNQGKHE
From the text: Whether or not a certain sweet substance can trigger a sweetness response even if a sweetness response through the sweet taste receptor T1R2/T1R3 is inhibited may be determined by, for instance, measuring, by sensory evaluation or cell assay, the sweetness intensity of a solution (control solution), in which only the above sweet substance has been dissolved, and the sweetness intensity (remaining sweetness intensity) of a solution (test solution), in which a sweet taste receptor T1R2/T1R3 inhibitor (e.g., lactisole, gymnemic acid) is added for inhibiting a sweetness response through the sweet taste receptor T1R2/T1R3 to the control solution; and by comparing the sweetness intensity of the control solution and the sweetness intensity of the test solution.
The evaluation was carried out by those (3 persons) who received sensory trainings as panelists. […] Additionally, solutions having the same composition as sample solutions 1, 2, 3, and 4 except that lactisole was not added were used as control solutions 1, 2, 3, and 4. The sensory evaluation was carried out by spitting test. The sweetness intensity was rated by the VAS scale and calculated with the intensity of a solution to which lactisole was not added being 100% and the sweetness intensity of a solution to which lactisole was added as a relative value (%). The sweetness inhibitory effect by lactisole was verified by this.

[3] = Degree of sweetness relative to sucrose; conditions: value used to design the sample solutions of Example 5
From the text: The “sweetness intensity” means an intensity of sweetness of a substance. […] A numerical value obtained by multiplying the degree of sweetness by a concentration Brix value of glucose is the sweetness intensity of glucose in terms of sucrose. Thus, when a concentration of glucose in terms of sucrose is Brix 1.5, the sweetness intensity of glucose is 0.65×1.5=0.975. The sweetness intensity of a sweetener in terms of sucrose can be calculated from a degree of sweetness shown in the following table or a value of a known degree of sweetness.
For example, when the sweetness intensity of sucrose per unit concentration Brix 1 is defined as a degree of sweetness of 1, a degree of sweetness of rebaudioside D is about 200 to 250 (median value 225), a degree of sweetness of rebaudioside M is about 200 to 260 (median value 230), a degree of sweetness of rebaudioside B is about 325, a degree of sweetness of rebaudioside A is about 200 to 300 (median value 250), a degree of sweetness of rebaudioside N is about 200 to 250 (median value 225), a degree of sweetness of rebaudioside O is about 200 to 250 (median value 225), a degree of sweetness of rebaudioside E is about 70 to 80 (median value 75), a degree of sweetness of a Luo han guo extract (containing 40% of Mog V) is about 110 to 150 (median value 130), a degree of sweetness of mogroside V is about 240 to 300 (median value 270), and a degree of sweetness of thaumatin is about 2,000, and a degree of sweetness of brazzein is about 500 to 2,000 (median value 1,250). The numerical value obtained by multiplying these degrees of sweetness by a concentration (w/v % (considered to be the same as w/w % in the case of a beverage)) of the high-intensity sweetener in a fruit juice beverage is a sweetness intensity of the high-intensity sweetener. The relative ratio in degrees of sweetness of various sweeteners to the degree of sweetness of 1 of sucrose can be determined from a known sugar sweetness conversion table, and the like. In the present description, when a degree of sweetness is shown in a numerical value range, the median value may be used. However, a sweetener having different values in a degree of sweetness by literatures, a relative ratio in a degree of sweetness to the degree of sweetness of 1 of sucrose can be defined by a sensory test. Examples of such a sensory test include a method in which samples were prepared by adding sucrose having a sweetness intensity of Brix 3.0 to 5.0 in 0.5 increments to pure water, and of which a sucrose-added sample having a sweetness intensity equal to an aqueous solution of a sweetener in a predetermined concentration is selected.
Additionally, for a sweetener with a variable degree of sweetness as a sweetness intensity increases, degrees of sweetness in different concentrations are actually measured and plotted whereby a degree of sweetness in a predetermined concentration may be calculated from the obtained approximate curve.

[4] = Basic taste quality sensory evaluation by trained panelists, spitting test, against 6% sucrose control (Example 1); type: in vivo, human; conditions: scale −3 to 3, 0 = no difference from 6% sucrose control; D-allulose 8.57 w/v %, D-arabinose 10 w/v % in pure water; 4 panelists
Protocol: In each evaluation item, the rating on a scale of −3 point to 3 point was performed, with the case where there is no difference from the control solution being 0. Quicker in sweetness onset, higher sweetness intensity, shorter lingering sweet aftertaste, lower bitterness intensity, and shorter lingering bitter aftertaste compared to the control were rated near 3 points. Slower in sweetness onset, lower sweetness intensity, longer lingering sweet aftertaste, higher bitterness intensity, and longer lingering bitter aftertaste compared to the control were rated near −3 points. That is, the closer to 0 point, the closer to the control. The evaluation was carried out by those (4 persons) who received sensory trainings as panelists by spitting test. The amount of a sweet substance contained in each sample solution was adjusted to be equal to the control solution on the calculation. […] The energy (kcal/100 ml) was calculated from the amount of the sweetener added.

Molecule: O=C[C@H](O)[C@H](O)[C@H](O)[C@H](O)CO [Allose]
Degree of sweetness ([1]; Table 1): 0.8

remaining sweetness intensity when 100 ppm of lactisole was added, compared with sucrose ([2]; 100 ppm lactisole): equal to or more than that of sucrose
Sweetness intensity residual ratio (%) with addition of 100 ppm lactisole [2]: 34.43%
Molecule: O=C[C@H](O)[C@@H](O)[C@@H](O)CO [L-Arabinose]
sweetness intensity, times as much as that of sucrose [3]: 0.6 times

Molecule: OC[C@H]1O[C@H](O[C@H]2[C@H](O)[C@@H](O)[C@H](O)O[C@@H]2CO)[C@H](O)[C@@H](O)[C@@H]1O [Maltose]
Degree of sweetness ([1]; Table 1): 0.4

Sweetness intensity residual ratio (%) with addition of 100 ppm lactisole [2]: 8.99%
Molecule: OC[C@H]1O[C@H](O[C@]2(CCl)O[C@H](CCl)[C@@H](O)[C@@H]2O)[C@H](O)[C@@H](O)[C@H]1Cl [Sucralose]
sweetness intensity, times as much as that of sucrose [3]: 538.54 times

Sweetness intensity residual ratio (%) with addition of 100 ppm lactisole [2]: 29.05%
Molecule: OC[C@H]1O[C@@](CO)(O[C@H]2O[C@H](CO)[C@@H](O)[C@H](O)[C@H]2O)[C@@H](O)[C@@H]1O [Sucrose]
Degree of sweetness ([1]; Table 1): 1
Bitterness intensity [4]: 0 point
Lingering bitter aftertaste [4]: 0 point
Lingering sweet aftertaste [4]: 0 point
Quickness in sweetness onset [4]: 0 point
Sweetness intensity [4]: 0 point

Molecule: O=C(CO)[C@@H](O)[C@@H](O)[C@H](O)CO [Tagatose]
Degree of sweetness ([1]; Table 1): 0.9

Molecule: rebaudioside B
Degree of sweetness ([1]; high-intensity sweeteners): about 325

Molecule: thaumatin
Degree of sweetness ([1]; high-intensity sweeteners): about 2,000
